The text below walks through data of patent US9789194B2, “Graft copolymer polyelectrolyte complexes for drug delivery” (priority 2007, dated 2017).

Peptide text beside a SMILES is read from it.

One series is described as follows: in vitro. The settings on record: human, plasma, half-life of the peptide, 50% human plasma. The procedure:
Aqueous solutions of the peptide:polymer complexes with various peptide:[…], were combined 1:1 v/v with human plasma sodium heparin anticoagulated, Biological Specialty Corporation) and placed in a 37° C. incubator. Fifty microliter aliquots of this mixture were injected at 1 h intervals onto a Prosphere HP C18-300 column, 250×4.6 mm ((Grace) mounted on a Waters HPLC system. The injection was loaded onto the column and equilibrated using a 90%/10%/0.1% water/acetonitrile/trifluoroacetic acid mobile phase and then eluted using a continuous gradient up to 70% acetonitrile. Integration of the KSL-W absorbance peak at 280 nm was used to determine peptide concentration in each sample. Every sample was run in parallel with a free-drug control at the same concentration.

Series [1] can be described thus: KSL-W binding efficiency by ultrafiltration. The series is classed as physicochemical. The settings on record: free peptide, 10 kDa MWCO ultrafiltration. The protocol: Efficiency of binding for each polymer-drug complex was determined using ultrafiltration. Ultrafiltration cartridges with 10 k MWCO (Amicon Microcon Ultrafiltration Filters) were used according to manufacturer's instructions. […] The KSL-W content of filtrate and retentate were determined using HPLC as described above.

A short description of series [2]: KSL-W release profiles by dialysis. The series is classed as physicochemical. As to conditions: free peptide, within the first 6 h of dialysis. The protocol: Each membrane cartridge was placed into 40 mL of water at 37° C. with gentle rocking (VWR brand incubating rocker, 50 Hz/15°). […] The amount of KSL-W remaining in each cartridge was evaluated at each time point using HPLC.

Series [3] concerns Staphylococcus aureus UAMS-1. The series is classed as cell-based. The protocol: The minimum inhibitory concentrations (MIC) KSL-W and its nanocomplexes were measured using the Clinical Laboratory Standards Institute (CLSI) broth microdilution method. Briefly, two-fold serial dilutions of free or complexed KSL-W solutions were prepared in THB medium at a volume of 200 µL/well in flat-bottom 96-well tissue culture plates (BD Biosciences). Hundred microliter of Staphylococcus aureus UAMS-1 (10^6 CFU/mL) was then added to each well. Plates were incubated overnight at 37° C. and then assessed by turbidity (absorbance at 600 nm). The concentration at which no turbidity was observed was considered the MIC. Each assay was reproduced in triplicate.

For orientation: half-life means the time in which the quantity being followed falls by half. The low end stands for rapid decline, the high end for slow decline. As a reminder, the MIC is the smallest concentration in the dilution series that meets the test's criterion for growth inhibition.

Take `CC(C)[C@H](NC(=O)[C@H](Cc1c[nH]c2ccccc12)NC(=O)[C@H](Cc1ccccc1)NC(=O)[C@@H](NC(=O)[C@@H](NC(=O)[C@H](CCCCN)NC(=O)[C@@H](N)CCCCN)C(C)C)C(C)C)C(=O)N[C@@H](CCCCN)C(=O)N[C@@H](Cc1ccccc1)C(=O)N[C@@H](CCCCN)C(N)=O` [KSL-W] (H-KKVVFWVKFK-NH2; N-terminus and C-terminus assumed): the half-life in the series “in vitro” (initial KSL-W concentration between 33 and 72 μg/mL) was 4 h; in the series “in vitro” (initial concentration between 13:2 and 330), 1 h. Besides, the “efficiency of passing through the membrane” value in series [1] is recorded as “over 95%”. Further, the “release through 8-10 kDa dialysis membrane” value in series [2] is “over 95%”. In addition, the “MIC (S. aureus UAMS-1)” value in series [3] (UAMS-1) lay within 62 to 153 µg/mL. In addition, in series [3] (free peptide, charge ratio NA), the “MIC ratio (complexed/free)” value was found to be 1.
For the molecule gentamicin, the MIC in series [3] (same S. aureus strain and conditions) was less than 3100 µg/mL.
